Earlier results in patent publication US5891889A, “Inhibitors of farnesyl-protein transferase” (Merck & Co., Inc., priority 1997, dated 1999).

System: farnesyl-protein transferase
Details: via inhibition of HMG-CoA reductase; literature

For `CC[C@H](C)C(=O)O[C@H]1CCC=C2C=C[C@H](C)[C@H](CC[C@@H]3C[C@@H](O)CC(=O)O3)[C@H]21` [compactin], the “Indirect inhibition of farnesyl-protein transferase in vivo” value is listed as “Indirect inhibition of farnesyl-protein transferase in vivo has been demonstrated”.

In the case of `CC[C@H](C)C(=O)O[C@H]1C[C@@H](C)C=C2C=C[C@H](C)[C@H](CC[C@@H]3C[C@@H](O)CC(=O)O3)[C@H]21` [lovastatin], the “Indirect inhibition of farnesyl-protein transferase in vivo” value is given as “Indirect inhibition of farnesyl-protein transferase in vivo has been demonstrated”.
